Test results published in patent US20240383886A1, “Protein Tyrosine Phosphatase Degraders and Methods of Use Thereof” (CALICO LIFE SCIENCES LLC, priority 2019, published 2024).

Experiments:
PTPN2 [1] = molecular target: T1, PTPN2 (Homo sapiens, UniProt P17706); assay: HiBiT-Degradation 293T.109 PTPN2 (Nano-Glo HiBiT Lytic Assay); format: cell-based; details: 293T.109 (HiBiT-PTPN2) cells, 24.0 hours
T1 construct: expressed in transfected cells; host or cells: 293T (293T.109 HiBiT-PTPN2 line; parental 293T WT from ATCC)
T1 sequence (P17706 1-415): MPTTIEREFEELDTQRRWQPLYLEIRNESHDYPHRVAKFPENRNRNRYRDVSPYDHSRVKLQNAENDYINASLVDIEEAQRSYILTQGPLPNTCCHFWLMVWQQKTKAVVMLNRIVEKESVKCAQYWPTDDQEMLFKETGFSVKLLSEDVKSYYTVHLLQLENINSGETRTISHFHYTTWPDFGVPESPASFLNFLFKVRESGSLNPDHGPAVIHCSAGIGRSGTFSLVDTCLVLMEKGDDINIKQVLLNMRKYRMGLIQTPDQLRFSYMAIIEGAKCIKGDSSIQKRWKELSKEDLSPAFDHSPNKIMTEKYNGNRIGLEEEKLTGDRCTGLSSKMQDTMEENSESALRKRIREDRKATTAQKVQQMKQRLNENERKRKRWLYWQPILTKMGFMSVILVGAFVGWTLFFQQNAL
Summary of the method: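 Luminescence from a lytic HiBiT read gave PTPN2 levels after 24 h compound exposure at 37° C. Compounds were tested at 11 half-log points from a 10 μM top concentration, in duplicate. The cells were 293T engineered with an N-terminal HiBiT–PTPN2 fusion, plated at 5000 per well, with untreated wells as negative control and no-reagent wells as positive control.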

PTPN2 [2] = assay: HiBiT-Degradation B16F10.4 PTPN2; format: cell-based; details: B16F10.4 cells, 24.0 hours

Structure (SMILES)	DC50 (PTPN2 [1]) [nM]	DC50 (PTPN2 [2]) [nM]
Cn1nc(C2CCC(=O)NC2=O)c2ccc(-c3ccc(CC(=O)Nc4ccc5c(F)c(N6CC(=O)NS6(=O)=O)c(O)cc5c4)cc3)cc21 (centres unmarked) [Example 177, N-(6-(1,1-dioxido-4-oxo-1,2,5-thiadiazolidin-2-yl)-5-fluoro-7-hydroxynaphthalen-2-yl)-2-(4-(3-(2,6-dioxopiperidin-3-yl)-1-methyl-1H-indazol-6-yl)phenyl)acetamide]	10 to 50	50 to 200
O=C(CN1CC(n2cc(CNc3cccc4c3C(=O)N(C3CCC(=O)NC3=O)C4=O)nn2)C1)NCCOc1ccc2cc(O)c(N3CC(=O)NS3(=O)=O)c(F)c2c1 (centres unmarked) [Example 42]	200 to 1000	≥ 1000
Cn1c(=O)n(C2CCC(=O)NC2=O)c2ccc(-c3ccc(CNC(=O)c4ccc5c(F)c(N6CC(=O)NS6(=O)=O)c(O)cc5c4)cc3)cc21 (centres unmarked) [Example 106]	200 to 1000	200 to 1000
Cn1c(=O)n(C2CCC(=O)NC2=O)c2ccc(C3CCN(CCNc4ccc5c(F)c(N6CC(=O)NS6(=O)=O)c(O)cc5c4)CC3)cc21 (centres unmarked) [Example 52]	≥ 1000	≥ 1000
Cn1c(=O)n(C2CCC(=O)NC2=O)c2ccc(C3CCN(CCN4CC=C(c5ccc6cc(O)c(N7CC(=O)NS7(=O)=O)c(F)c6c5)CC4)CC3)cc21 (centres unmarked) [Example 121, 3-[5-[1-[2-[4-[8-fluoro-6-hydroxy-7-(1,1,4-trioxo-1,2,5-thiadiazolidin-2-yl)-2-naphthyl]-3,6-dihydro-2H-pyridin-1-yl]ethyl]-4-piperidyl]-3-methyl-2-oxo-benzimidazol-1-yl]piperidine-2,6-dione]	10 to 50	50 to 200
Cn1c(=O)n(C2CCC(=O)NC2=O)c2ccc([C@H]3CC[C@H](CNC(=O)c4ccc5c(F)c(N6CC(=O)NS6(=O)=O)c(O)cc5c4)CC3)cc21 (single isomer, unassigned) [Example 76]	10 to 50	50 to 200
Cn1c(=O)n(C2CCC(=O)NC2=O)c2ccc(N3CCC(CC(=O)N4CCC[C@@H](COc5ccc6cc(O)c(N7CC(=O)NS7(=O)=O)c(F)c6c5)C4)CC3)cc21 (stereo partly drawn) [Example 142, 3-[5-[4-[2-[(3R)-3-[[8-fluoro-6-hydroxy-7-(1,1,4-trioxo-1,2,5-thiadiazolidin-2-yl)-2-naphthyl]oxymethyl]-1-piperidyl]-2-oxo-ethyl]-1-piperidyl]-3-methyl-2-oxo-benzimidazol-1-yl]piperidine-2,6-dione]	50 to 200	200 to 1000
O=C1CCC(N2Cc3cc(NCC(=O)N4CCC(C(=O)NCCOc5ccc6cc(O)c(N7CC(=O)NS7(=O)=O)c(F)c6c5)CC4)ccc3C2=O)C(=O)N1 (centres unmarked) [Example 35]	200 to 1000	200 to 1000
Cn1c(=O)n(C2CCC(=O)NC2=O)c2ccc(C3CN(CC(=O)NCCOc4ccc5cc(O)c(N6CC(=O)NS6(=O)=O)c(F)c5c4)C3)cc21 (centres unmarked) [Example 161, 2-[3-[1-(2,6-dioxo-3-piperidyl)-3-methyl-2-oxo-benzimidazol-5-yl]azetidin-1-yl]-N-[2-[[8-fluoro-6-hydroxy-7-(1,1,4-trioxo-1,2,5-thiadiazolidin-2-yl)-2-naphthyl]oxy]ethyl]acetamide]	200 to 1000	200 to 1000
Cn1c(=O)n(C2CCC(=O)NC2=O)c2ccc(C3CCN(CCn4cc(-c5ccc6cc(O)c(N7CC(=O)NS7(=O)=O)c(F)c6c5)cn4)CC3)cc21 (centres unmarked) [Example 135, 3-[5-[1-[2-[4-[8-fluoro-6-hydroxy-7-(1,1,4-trioxo-1,2,5-thiadiazolidin-2-yl)-2-naphthyl]pyrazol-1-yl]ethyl]-4-piperidyl]-3-methyl-2-oxo-benzimidazol-1-yl]piperidine-2,6-dione]	50 to 200	50 to 200
Cn1c(=O)n(C2CCC(=O)NC2=O)c2ccc(C3CCN(CCC(=O)N4CCC(c5ccc6cc(O)c(N7CC(=O)NS7(=O)=O)c(F)c6c5)C4)CC3)cc21 (centres unmarked) [Example 72, 3-[5-[1-[3-[3-[8-fluoro-6-hydroxy-7-(1,1,4-trioxo-1,2,5-thiadiazolidin-2-yl)-2-naphthyl]pyrrolidin-1-yl]-3-oxo-propyl]-4-piperidyl]-3-methyl-2-oxo-benzimidazol-1-yl]piperidine-2,6-dione]	10 to 50	50 to 200
O=C1CCC(N2Cc3c(NCc4cnn(CCC(=O)Nc5ccc6c(F)c(N7CC(=O)NS7(=O)=O)c(O)cc6c5)c4)cccc3C2=O)C(=O)N1 (centres unmarked) [Example 13, 3-[4-[[[2-(2,6-dioxo-3-piperidyl)-1-oxo-isoindolin-4-yl]amino]methyl]pyrazol-1-yl]-N-[5-fluoro-7-hydroxy-6-(1,1,4-trioxo-1,2,5-thiadiazolidin-2-yl)-2-naphthyl]propanamide]	50 to 200	200 to 1000
Cn1c(=O)n(C2CCC(=O)NC2=O)c2ccc(C3CCN(CC(=O)NCCOc4ccc5cc(O)c(N6CC(=O)NS6(=O)=O)c(F)c5c4)CC3)cc21 (centres unmarked) [Example 4, N-(2-((7-(1,1-dioxido-4-oxo-1,2,5-thiadiazolidin-2-yl)-8-fluoro-6-hydroxynaphthalen-2-yl)oxy)ethyl)-2-(4-(1-(2,6-dioxopiperidin-3-yl)-3-methyl-2-oxo-2,3-dihydro-1H-benzo[d]imidazol-5-yl)piperidin-1-yl)acetamide]	50 to 200	≥ 1000
Cn1c(=O)n(C2CCC(=O)NC2=O)c2ccc(-c3ccc(CC(=O)Nc4ccc5c(F)c(N6CC(=O)NS6(=O)=O)c(O)cc5c4)nc3)cc21 (centres unmarked) [Example 175, N-(6-(1,1-dioxido-4-oxo-1,2,5-thiadiazolidin-2-yl)-5-fluoro-7-hydroxynaphthalen-2-yl)-2-(5-(1-(2,6-dioxopiperidin-3-yl)-3-methyl-2-oxo-2,3-dihydro-1H-benzo[d]imidazol-5-yl)pyridin-2-yl)acetamide]	10 to 50	50 to 200
Cn1c(=O)n(C2CCC(=O)NC2=O)c2ccc(C3CCN([C@@H](CO)C(=O)Nc4ccc5c(F)c(N6CC(=O)NS6(=O)=O)c(O)cc5c4)CC3)cc21 (stereo partly drawn) [Example 184, (2S)—N-(6-(1,1-dioxido-4-oxo-1,2,5-thiadiazolidin-2-yl)-5-fluoro-7-hydroxynaphthalen-2-yl)-2-(4-(1-(2,6-dioxopiperidin-3-yl)-3-methyl-2-oxo-2,3-dihydro-1H-benzo[d]imidazol-5-yl)piperidin-1-yl)-3-hydroxypropanamide]	10 to 50	50 to 200
O=C(CCOCCOCCNC(=O)CNc1cccc2c1CN(C1CCC(=O)NC1=O)C2=O)NCCOc1ccc2cc(O)c(N3CC(=O)NS3(=O)=O)c(F)c2c1 (centres unmarked) [Example 46]	≥ 1000	≥ 1000
Cn1c(=O)n(C2CCC(=O)NC2=O)c2ccc(Nc3ccc(C(=O)NCCOc4ccc5cc(O)c(N6CC(=O)NS6(=O)=O)c(F)c5c4)cc3)cc21 (centres unmarked) [Example 126, 4-[[1-(2,6-dioxo-3-piperidyl)-3-methyl-2-oxo-benzimidazol-5-yl]amino]-N-[2-[[8-fluoro-6-hydroxy-7-(1,1,4-trioxo-1,2,5-thiadiazolidin-2-yl)-2-naphthyl]oxy]ethyl]benzamide]	200 to 1000	200 to 1000
Cn1c(=O)n(C2CCC(=O)NC2=O)c2ccc(C3CCN(CC(=O)N4CC=C(c5ccc6cc(O)c(N7CC(=O)NS7(=O)=O)c(F)c6c5)CC4)CC3)cc21 (centres unmarked) [Example 119, 3-[5-[1-[2-[4-[8-fluoro-6-hydroxy-7-(1,1,4-trioxo-1,2,5-thiadiazolidin-2-yl)-2-naphthyl]-3,6-dihydro-2H-pyridin-1-yl]-2-oxo-ethyl]-4-piperidyl]-3-methyl-2-oxo-benzimidazol-1-yl]piperidine-2,6-dione]	10 to 50	50 to 200
O=C(CCOCCOCCn1cc(CNc2cccc3c2C(=O)N(C2CCC(=O)NC2=O)C3=O)nn1)NCCOc1ccc2cc(O)c(N3CC(=O)NS3(=O)=O)c(F)c2c1 (centres unmarked) [Example 44]	≥ 1000	≥ 1000
O=C1CCC(N2C(=O)c3cccc4c(C5CCN(CC(=O)N6CC(Oc7ccc8cc(O)c(N9CC(=O)NS9(=O)=O)c(F)c8c7)C6)CC5)ccc2c34)C(=O)N1 (centres unmarked) [Example 158, 3-[6-[1-[2-[3-[[8-fluoro-6-hydroxy-7-(1,1,4-trioxo-1,2,5-thiadiazolidin-2-yl)-2-naphthyl]oxy]azetidin-1-yl]-2-oxo-ethyl]-4-piperidyl]-2-oxo-benzo[cd]indol-1-yl]piperidine-2,6-dione]	10 to 50	50 to 200
Cn1c(=O)n(C2CCC(=O)NC2=O)c2ccc(C3=CCC(CNC(=O)c4ccc5c(F)c(N6CC(=O)NS6(=O)=O)c(O)cc5c4)CC3)cc21 (centres unmarked) [Example 102]	200 to 1000	200 to 1000
Cn1c(=O)n(C2CCC(=O)NC2=O)c2ccc(C3CCN(CC(=O)N4CCC[C@H](COc5ccc6cc(O)c(N7CC(=O)NS7(=O)=O)c(F)c6c5)C4)CC3)cc21 (stereo partly drawn) [Example 134, 3-[5-[1-[2-[(3S)-3-[[8-fluoro-6-hydroxy-7-(1,1,4-trioxo-1,2,5-thiadiazolidin-2-yl)-2-naphthyl]oxymethyl]-1-piperidyl]-2-oxo-ethyl]-4-piperidyl]-3-methyl-2-oxo-benzimidazol-1-yl]piperidine-2,6-dione]	50 to 200	200 to 1000
